Test results reported in US7759345B2, “Antitumoral derivatives of ET-743” (priority 2001, dated 2010).

Experiments:
HT-29 = experiment: Inhibition of cells growth by colorimetric assay (SRB), HT-29; type: cell-based; details: for GI50 / LC50 (concentration for 50% cell killing): Homo sapiens, HT-29, 48 h; for GI50 / HT-29 TGI: SRB assay, 48 hours exposure; for GI50: read-out: HT-29 GI50; for LC50 (concentration for 50% cell killing): read-out: HT-29 LC50, SRB assay, 48 hours exposure
Procedure, shortened: (§1)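 First, cells were plated at 5×10^3 per well and left 18 h to attach. Next, compound was added over 10 to 10^−8 μg/ml for 48 h. Finally, cells were TCA-fixed, SRB-stained and absorbance read at 490 nm.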

DU-145 = experiment: Inhibition of cells growth by colorimetric assay (SRB), DU-145; type: cell-based; details: for GI50 / CC50: Homo sapiens, DU-145, 48 h; for GI50 / DU-145 TGI: SRB assay, 48 hours exposure; for GI50: read-out: DU-145 GI50; for CC50: read-out: DU-145 LC50, SRB assay, 48 hours exposure
Procedure, shortened: as §1

SK-MEL-28 = experiment: Inhibition of cells growth by colorimetric assay (SRB), SK-MEL-28; type: cell-based; details: for GI50 / CC50: Homo sapiens, SK-MEL-28, 48 h; for GI50 / MEL-28 TGI: SRB assay, 48 hours exposure; for GI50: read-out: MEL-28 GI50; for CC50: read-out: MEL-28 LC50, SRB assay, 48 hours exposure
Procedure, shortened: as §1

IGROV-1 = experiment: Inhibition of cells growth by colorimetric assay (SRB), IGROV-1; type: cell-based; details: for GI50 / CC50: Homo sapiens, IGROV-1, 48 h; for GI50 / IGROV TGI: SRB assay, 48 hours exposure; for GI50: read-out: IGROV GI50; for CC50: read-out: IGROV LC50, SRB assay, 48 hours exposure
Procedure, shortened: as §1

A-549 = experiment: Inhibition of cells growth by colorimetric assay (SRB), A-549; type: cell-based; details: for GI50 / LC50 (concentration for 50% cell killing): Homo sapiens, A549, 48 h; for GI50 / A-549 TGI: SRB assay, 48 hours exposure; for GI50: read-out: A-549 GI50; for LC50 (concentration for 50% cell killing): read-out: A-549 LC50, SRB assay, 48 hours exposure
Procedure, shortened: as §1

PANC-1 = experiment: Inhibition of cells growth by colorimetric assay (SRB), PANC-1; type: cell-based; details: for GI50 / LC50 (concentration for 50% net cell kill): Homo sapiens, PANC-1, 48 h; for GI50 / PANC-1 TGI: SRB assay, 48 hours exposure; for GI50: read-out: PANC-1 GI50; for LC50 (concentration for 50% net cell kill): read-out: PANC-1 LC50, SRB assay, 48 hours exposure
Procedure, shortened: as §1

LoVo-Dox = experiment: Inhibition of cells growth by colorimetric assay (SRB), LoVo-Dox; type: cell-based; details: for GI50 / CC50: Homo sapiens, 48 h; for GI50 / LOVO-DOX TGI: SRB assay, 48 hours exposure; for GI50: read-out: LOVO-DOX GI50; for CC50: read-out: LOVO-DOX LC50, SRB assay, 48 hours exposure
Procedure, shortened: as §1

HMEC1 = experiment: Inhibition of cells growth by colorimetric assay (SRB), HMEC1; type: cell-based; details: for GI50 / LC50: Homo sapiens, HMEC-1, 48 h; for GI50 / HMEC-1 TGI: SRB assay, 48 hours exposure; for GI50: read-out: HMEC-1 GI50; for LC50: read-out: HMEC-1 LC50, SRB assay, 48 hours exposure
Procedure, shortened: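 Cells in RPMI 1640 with 10% FBS were seeded at 5×10^3 per well, allowed 18 h to attach, then exposed to compound (10 to 10^−8 μg/ml, in DMSO/EtOH/PBS 0.5:0.5:99) for 48 h. After TCA fixation and SRB staining, bound dye was solubilized in Tris and OD read at 490 nm; GI, TGI and LC derived from triplicates.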

IGROV-ET = experiment: Inhibition of cells growth by colorimetric assay (SRB), IGROV-ET; type: cell-based; details: for GI50 / CC50: Homo sapiens, 48 h; for GI50 / IGROV-ET TGI: SRB assay, 48 hours exposure; for GI50: read-out: IGROV-ET GI50; for CC50: read-out: IGROV-ET LC50, SRB assay, 48 hours exposure
Procedure, shortened: as §1

SK-OV-3 = experiment: Inhibition of cells growth by colorimetric assay (SRB), SK-OV-3; type: cell-based; details: for GI50 / LC50: Homo sapiens, SK-OV-3, 48 h; for GI50 / SK-OV3 TGI: SRB assay, 48 hours exposure; for GI50: read-out: SK-OV3 GI50; for LC50: read-out: SK-OV3 LC50, SRB assay, 48 hours exposure
Procedure, shortened: as §1

SK-BR-3 = experiment: Inhibition of cells growth by colorimetric assay (SRB), SK-BR-3; type: cell-based; details: for GI50 / CC50: Homo sapiens, SK-BR-3, 48 h; for GI50 / SK-BR3 TGI: SRB assay, 48 hours exposure; for GI50: read-out: SK-BR3 GI50; for CC50: read-out: SK-BR3 LC50, SRB assay, 48 hours exposure
Procedure, shortened: as §1

LNCaP = experiment: Inhibition of cells growth by colorimetric assay (SRB), LNCaP; type: cell-based; details: for GI50 / CC50: Homo sapiens, LNCaP, 48 h; for GI50: read-out: LNCAP GI50, SRB assay, 48 hours exposure; for CC50: read-out: LNCAP LC50, SRB assay, 48 hours exposure; for LNCAP TGI: SRB assay, 48 hours exposure
Procedure, shortened: as §1

K-562 = experiment: Inhibition of cells growth by colorimetric assay (SRB), K-562; type: cell-based; details: for GI50 / LC50 (50% cell killing): Homo sapiens, K562, 48 h; for GI50 / K-562 TGI: SRB assay, 48 hours exposure; for GI50: read-out: K-562 GI50; for LC50 (50% cell killing): read-out: K-562 LC50, SRB assay, 48 hours exposure
Procedure, shortened: as §1

LoVo = experiment: Inhibition of cells growth by colorimetric assay (SRB), LoVo; type: cell-based; details: for GI50 / LC50 (concentration for 50% cell killing): Homo sapiens, LoVo, 48 h; for GI50 / LOVO TGI: SRB assay, 48 hours exposure; for GI50: read-out: LOVO GI50; for LC50 (concentration for 50% cell killing): read-out: LOVO LC50, SRB assay, 48 hours exposure
Procedure, shortened: as §1

Text for Heart: (§2) Toxicity was asssessed by the methods reported in Toxicology in Vitro, 15 (2001) 571-577, J. Luber Narod et al.: “Evaluation of the use of in vitro methodolodies as tools for screening new compounds for potential in vivo toxicity”.
Text for Kidney: as §2
Text for Liver: as §2
Text for Myelo: as §2
Text for Skeletal: as §2

COc1cc2c(cc1OC(=O)OC(C)(C)C)CCN[C@]21CS[C@@H]2c3c(OC(=O)[C@H](C)NC(=O)OC(C)(C)C)c(C)c4c(c3[C@H](COC1=O)N1C2[C@H]2c3c(cc(C)c(OC)c3O)C[C@@H]([C@@H]1O)N2C)OCO4 (stereo partly shown) [Compound 175]
Toxicity Data Skeletal (Skeletal): 2.12E-07 | Toxicity Data Myelo (Myelo): 1.59E-08 | GI50 (HT-29): 4.15 nM | LC50 (concentration for 50% cell killing) (HT-29): 10100 nM | HT-29 TGI (HT-29): 1.54E-08 | GI50 (DU-145): 3.67 nM | CC50 (DU-145): 10100 nM | DU-145 TGI (DU-145): 9.20E-09 | GI50 (SK-MEL-28): 3.28 nM | CC50 (SK-MEL-28): 25.2 nM | MEL-28 TGI (SK-MEL-28): 6.63E-09 | GI50 (IGROV-1): 0.641 nM | CC50 (IGROV-1): 8.13 nM | IGROV TGI (IGROV-1): 2.37E-09 | Toxicity Data Liver (Liver): 3.87E-09 | GI50 (A-549): 2.25 nM | LC50 (concentration for 50% cell killing) (A-549): 7.97 nM | A-549 TGI (A-549): 4.24E-09 | Toxicity Data Kidney (Kidney): 2.84E-09 | Toxicity Data Heart (Heart): 2.82E-09 | GI50 (PANC-1): 4.38 nM | LC50 (concentration for 50% net cell kill) (PANC-1): 10100 nM | PANC-1 TGI (PANC-1): 1.33E-08 | GI50 (LoVo-Dox): 43.3 nM | CC50 (LoVo-Dox): 10100 nM | LOVO-DOX TGI (LoVo-Dox): 1.55E-07 | GI50 (HMEC1): 3.54 nM | LC50 (HMEC1): 10100 nM | HMEC-1 TGI (HMEC1): 1.29E-08 | GI50 (IGROV-ET): 3.97 nM | CC50 (IGROV-ET): 1720 nM | IGROV-ET TGI (IGROV-ET): 9.56E-09 | GI50 (SK-OV-3): 3.56 nM | LC50 (SK-OV-3): 10100 nM | SK-OV3 TGI (SK-OV-3): 8.77E-09 | GI50 (SK-BR-3): 1.31 nM | CC50 (SK-BR-3): 13.2 nM | SK-BR3 TGI (SK-BR-3): 3.78E-09 | GI50 (LNCaP): 0.382 nM | CC50 (LNCaP): 3.64 nM | LNCAP TGI (LNCaP): 1.12E-09 | GI50 (K-562): 0.293 nM | LC50 (50% cell killing) (K-562): 0.775 nM | K-562 TGI (K-562): 4.76E-10 | GI50 (LoVo): 2.3 nM | LC50 (concentration for 50% cell killing) (LoVo): 8.33 nM | LOVO TGI (LoVo): 4.38E-09

C=COC(=O)Oc1c(C)c2c(c3c1[C@H]1SC[C@]4(NCCc5cc(OC(=O)OC(C)(C)C)c(OC)cc54)C(=O)OC[C@@H]3N3C1[C@H]1c4c(cc(C)c(OC)c4O)C[C@@H]([C@@H]3O)N1C)OCO2 (stereo partly shown) [Compound 176]
Toxicity Data Skeletal (Skeletal): 2.41E-08 | Toxicity Data Myelo (Myelo): 1.42E-08 | GI50 (HT-29): 3.83 nM | LC50 (concentration for 50% cell killing) (HT-29): 11200 nM | HT-29 TGI (HT-29): 7.96E-09 | GI50 (DU-145): 5.24 nM | CC50 (DU-145): 8360 nM | DU-145 TGI (DU-145): 1.10E-08 | GI50 (SK-MEL-28): 25.8 nM | CC50 (SK-MEL-28): 95.6 nM | MEL-28 TGI (SK-MEL-28): 4.97E-08 | GI50 (IGROV-1): 1.74 nM | CC50 (IGROV-1): 10.7 nM | IGROV TGI (IGROV-1): 4.30E-09 | Toxicity Data Liver (Liver): 2.95E-08 | GI50 (A-549): 2.75 nM | LC50 (concentration for 50% cell killing) (A-549): 11.2 nM | A-549 TGI (A-549): 6.01E-09 | Toxicity Data Kidney (Kidney): 2.80E-09 | Toxicity Data Heart (Heart): 1.98E-08 | GI50 (PANC-1): 5.31 nM | LC50 (concentration for 50% net cell kill) (PANC-1): 3200 nM | PANC-1 TGI (PANC-1): 1.97E-08 | GI50 (LoVo-Dox): 47.3 nM | CC50 (LoVo-Dox): 11200 nM | LOVO-DOX TGI (LoVo-Dox): 1.15E-06 | GI50 (HMEC1): 3.46 nM | LC50 (HMEC1): 11200 nM | HMEC-1 TGI (HMEC1): 1.48E-07 | GI50 (IGROV-ET): 4.88 nM | CC50 (IGROV-ET): 3450 nM | IGROV-ET TGI (IGROV-ET): 3.38E-08 | GI50 (SK-OV-3): 3.26 nM | LC50 (SK-OV-3): 11 nM | SK-OV3 TGI (SK-OV-3): 8.07E-09 | GI50 (SK-BR-3): 2.7 nM | CC50 (SK-BR-3): 40.6 nM | SK-BR3 TGI (SK-BR-3): 7.73E-09 | GI50 (LNCaP): 1.62 nM | CC50 (LNCaP): 6.49 nM | LNCAP TGI (LNCaP): 3.25E-09 | GI50 (K-562): 0.737 nM | LC50 (50% cell killing) (K-562): 6.89 nM | K-562 TGI (K-562): 1.52E-09 | GI50 (LoVo): 11.1 nM | LC50 (concentration for 50% cell killing) (LoVo): 112 nM | LOVO TGI (LoVo): 5.12E-08
